Molecules are shown by their SMILES.

The values below come from patent US20050054006A1, “Combinatorial fluorescent library based on the styryl scaffold” (New York University, priority 2003, published 2005).

The test system of data set [1] is UACC-62 human melanoma cells. Description: Organelle localization in live cells by fluorescence microscopy. The conditions noted are these: live UACC-62 cells, fluorescence microscope λex=405, 490, 570 nm; λem>510 nm.
Data set [2] is described as follows: Fluorescence excitation/emission of the styryl dye library compounds. The format is physicochemical. The conditions noted are these: EX/EM peak no. 1.

Turning to `C[n+]1ccc(C=CCc2ccccc2)cc1.[I-]` [Compound A1], the LOCALIZATION result in data set [1] is “CYTO”. In data set [2], the “EM(nm)” value is on record as 490 nm and the “EX(nm)” value came to 390 nm.
For `C[n+]1ccc(C=Cc2ccc(OCc3ccccc3)c(OCc3ccccc3)c2)cc1.[I-]` [Compound A12], the LOCALIZATION result in data set [1] is recorded as “MITO”. Further, in data set [2], the “EM(nm)” value was 540 nm and the “EX(nm)” value is reported as 330-460 nm.
For `COc1ccc(C=Cc2cc[n+](C)cc2)c2ccccc12.[I-]` [Compound A14], in that order: “MITO”, 550 nm and 430(broad) nm.
Turning to `CN(C)c1ccc(C=Cc2cc[n+](C)cc2)cc1.[I-]` [Compound A19], in data set [1], the LOCALIZATION entry was “MITO and NUCLEOLI”. In data set [2], the “EM(nm)” value stood at 600 nm and the “EX(nm)” value worked out at 460 nm.
For the compound `COc1ccc2ccccc2c1C=Cc1cc[n+](C)cc1.[I-]` [Compound A23], the LOCALIZATION entry in data set [1] is “CYTO and MITO”. In addition, in data set [2], the “EM(nm)” value came out at 540 nm and the “EX(nm)” value is 450 (broad) nm.
Regarding `C[n+]1ccc(C=Cc2c[nH]c3ccccc23)cc1.[I-]` [Compound A24], the LOCALIZATION result in data set [1] is “CYTO”. Besides, in data set [2], the “EM(nm)” value came to 530 nm and the “EX(nm)” value is recorded as 400) nm.
With `CN(C)c1ccc(C=Cc2cc[n+](C)cc2)c2ccccc12.[I-]` [Compound A27], the LOCALIZATION entry in data set [1] is listed as “CYTO”. In addition, in data set [2], the “EM(nm)” value is given as 640 nm and the “EX(nm)” value was found to be 450 nm.
For `C[n+]1ccc(C=Cc2cccc3ccccc23)cc1.[I-]` [Compound A32], in data set [1], the LOCALIZATION entry was “MITO and CYTO and VESICLE”. Moreover, in data set [2], the “EM(nm)” value was 510 nm and the “EX(nm)” value stood at 400 nm.
Regarding `COc1ccc(/C=C/c2cc[n+](C34CC5CC(CC(C5)C3)C4)cc2)cc1OC.[Br-]` [Compound B11], the LOCALIZATION result in data set [1] is recorded as “MITO”. In addition, in data set [2], the “EM(nm)” value is 540 nm and the “EX(nm)” value is recorded as 340-440 nm.
As to `Oc1ccc(C=Cc2cc[n+](C34CC5CC(CC(C5)C3)C4)cc2)cc1.[Br-]` [Compound B16], the LOCALIZATION entry in data set [1] is reported as “MITO”. Also, in data set [2], the “EM(nm)” value stood at 590 nm and the “EX(nm)” value came to 400 nm.
With `O=[N+]([O-])c1ccc(C=Cc2cc[n+](C34CC5CC(CC(C5)C3)C4)cc2)cc1.[Br-]` [Compound B22], the LOCALIZATION result in data set [1] is “MITO”. For the same compound, in data set [2], the “EM(nm)” value is 600 nm and the “EX(nm)” value is given as 410-420 nm.
For `C[n+]1c(C=Cc2ccc(Br)cc2)ccc2ccccc21.[I-]` [Compound H5], in data set [2], the “EM(nm)” value was determined as 640 nm and the “EX(nm)” value came out at 480 nm.
As to `C[n+]1c(C=Cc2ccc(Cl)cc2)ccc2ccccc21.[I-]` [Compound H6], in data set [2], the “EM(nm)” value is 640 nm and the “EX(nm)” value was determined as 530 nm.
As for `Cc1ccccc1C=Cc1ccc2ccccc2[n+]1C.[I-]` [Compound H7], in data set [2], the “EM(nm)” value stood at 650 nm and the “EX(nm)” value is 420 nm.
For `Cc1ccc(/C=C/c2ccc3ccccc3[n+]2C)cc1.[I-]` [Compound H8], in that order: 650 nm and 530 nm.
For the compound `COc1ccc(C=Cc2ccc3ccccc3[n+]2C)cc1OC.[I-]` [Compound H11], in data set [2], the “EM(nm)” value worked out at 570 nm and the “EX(nm)” value is 460 nm.
For `COc1cc(C=Cc2ccc3ccccc3[n+]2C)cc(OC)c1OC.[I-]` [Compound H13], in that order: 590 nm and 420 nm.
Turning to `C[n+]1c(C=Cc2c3ccccc3cc3ccccc23)ccc2ccccc21.[I-]` [Compound H34], in data set [2], the “EM(nm)” value is listed as 650 nm and the “EX(nm)” value is listed as 460 nm.
With `C[n+]1c(C=Cc2ccc3ccc4cccc5ccc2c3c45)ccc2ccccc21.[I-]` [Compound H41], in data set [2], the “EM(nm)” value amounted to 640 nm and the “EX(nm)” value was found to be 480 nm.
For the compound `COc1ccc2c(ccc(C=Cc3ccc(Br)cc3)[n+]2C)c1.[I-]` [Compound I5], in data set [2], the “EM(nm)” value worked out at 650 nm and the “EX(nm)” value was 420 nm.
For the compound `COc1ccc2c(ccc(C=Cc3ccc(OC)c(OC)c3)[n+]2C)c1.[I-]` [Compound I11], in data set [2], the “EM(nm)” value is listed as 560 nm and the “EX(nm)” value is reported as 430 nm.
As to `COc1ccc2c(ccc(C=Cc3cc(OC)c(OC)c(OC)c3)[n+]2C)c1.[I-]` [Compound I13], in data set [2], the “EM(nm)” value was 580 nm and the “EX(nm)” value was 430 nm.
Turning to `COc1ccc2c(ccc(C=Cc3ccc(OC)c(O)c3)[n+]2C)c1.[I-]` [Compound I15], in data set [2], the “EM(nm)” value worked out at 520 nm and the “EX(nm)” value came to 360 nm.
As to `COc1ccc2c(ccc(C=Cc3ccc([N+](=O)[O-])cc3)[n+]2C)c1.[I-]` [Compound I22], in data set [2], the “EM(nm)” value stood at 510 nm and the “EX(nm)” value came out at 360 nm.
For the compound `COc1ccc2c(ccc(C=Cc3c(OC)ccc4ccccc34)[n+]2C)c1.[I-]` [Compound I23], in data set [2], the “EM(nm)” value amounted to 550 nm and the “EX(nm)” value was 340-360 nm.
On to `COc1ccc2c(ccc(C=Cc3ccccc3F)[n+]2C)c1.[I-]` [Compound I29], for which, in data set [2], the “EM(nm)” value was determined as 580 nm.
Take `COc1ccc2c(ccc(C=Cc3c4ccccc4cc4ccccc34)[n+]2C)c1.[I-]` [Compound I34]: in data set [2], the “EM(nm)” value was 650 nm and the “EX(nm)” value stood at 490 nm.
On to `COc1ccc2c(ccc(C=CC=Cc3ccccc3[N+](=O)[O-])[n+]2C)c1.[I-]` [Compound I36], for which, in data set [2], the “EM(nm)” value came out at 530 nm and the “EX(nm)” value was 360 nm.
For `COc1ccc2c(ccc(C=Cc3ccc4c(c3)OCO4)[n+]2C)c1.[I-]` [Compound I39], in data set [2], the “EM(nm)” value is 500 nm and the “EX(nm)” value is given as 380 nm.
On to `COc1ccc2c(ccc(C=Cc3ccc4ccc5cccc6ccc3c4c56)[n+]2C)c1.[I-]` [Compound I41], for which, in data set [2], the “EM(nm)” value came out at 630 nm and the “EX(nm)” value turned out to be 480 nm.
For the compound `COc1ccc(C=Cc2cc[n+](C)c(-c3cc(C)ccn3)c2)cc1OC.[I-]` [Compound J11], in data set [2], the “EM(nm)” value is on record as 560 nm and the “EX(nm)” value came out at 420 nm.
Turning to `COc1cc(C=Cc2cc[n+](C)c(-c3cc(C)ccn3)c2)cc(OC)c1OC.[I-]` [Compound J13], in data set [2], the “EM(nm)” value was found to be 590 nm.
In the case of `COc1ccc(C=Cc2cc[n+](C)c(-c3cc(C)ccn3)c2)c2ccccc12.[I-]` [Compound J14], in data set [2], the “EM(nm)” value was 580 nm and the “EX(nm)” value is on record as 420-480 nm.
For the compound `COc1ccc2ccccc2c1C=Cc1cc[n+](C)c(-c2cc(C)ccn2)c1.[I-]` [Compound J23], in data set [2], the “EM(nm)” value was 570 nm and the “EX(nm)” value is 430-460 nm.
`Cc1ccnc(-c2cc(/C=C/c3c[nH]c4ccccc34)cc[n+]2C)c1.[I-]` [Compound J24]: in data set [2], the “EM(nm)” value is recorded as 560 nm and the “EX(nm)” value was 420-500 nm.
For the compound `Cc1ccnc(-c2cc(C=Cc3ccc(N(C)C)c4ccccc34)cc[n+]2C)c1.[I-]` [Compound J27], in data set [2], the “EM(nm)” value is given as 670 nm and the “EX(nm)” value came out at 460 nm.
In the same order, the values of `Cc1ccnc(-c2cc(C=Cc3c4ccccc4cc4ccccc34)cc[n+]2C)c1.[I-]` [Compound J34] are 630 nm and 430 nm.
Consider `Cc1ccnc(-c2cc(C=CC=Cc3ccccc3[N+](=O)[O-])cc[n+]2C)c1.[I-]` [Compound J36], for which, in data set [2], the “EM(nm)” value is recorded as 540 nm and the “EX(nm)” value came out at 420 nm.
As to `Cc1ccnc(-c2cc(C=CC=Cc3ccc(N(C)C)cc3)cc[n+]2C)c1.[I-]` [Compound J37], in data set [2], the “EM(nm)” value is given as 730 nm and the “EX(nm)” value is on record as 550(broad) nm.
For `Cc1ccnc(-c2cc(/C=C/c3ccccn3)cc[n+]2C)c1.[I-]` [Compound J40], in that order: 580 nm and 400 nm.
With `Cc1ccnc(-c2cc(C=Cc3ccc4ccc5cccc6ccc3c4c56)cc[n+]2C)c1.[I-]` [Compound J41], in data set [2], the “EM(nm)” value is reported as 630 nm and the “EX(nm)” value turned out to be 460 nm.
As for `Cc1cccc(C=Cc2ccc(OCc3ccccc3)c(OCc3ccccc3)c2)[n+]1C.[I-]` [Compound L12], in data set [2], the “EM(nm)” value came to 520 nm and the “EX(nm)” value worked out at 390 nm.
Turning to `COc1cc(C=Cc2cccc(C)[n+]2C)cc(OC)c1OC.[I-]` [Compound L13], in data set [2], the “EM(nm)” value is on record as 540 nm and the “EX(nm)” value amounted to 380 nm.
Regarding `COc1ccc(C=Cc2cccc(C)[n+]2C)c2ccccc12.[I-]` [Compound L14], in data set [2], the “EM(nm)” value turned out to be 570 nm and the “EX(nm)” value is reported as 420 (broad) nm.
For the compound `COc1ccc(C=Cc2cccc(C)[n+]2C)cc1O.[I-]` [Compound L15], in data set [2], the “EM(nm)” value is given as 570 nm and the “EX(nm)” value worked out at 390 nm.
On to `Cc1cccc(C=Cc2ccc(O)cc2)[n+]1C.[I-]` [Compound L16], for which, in data set [2], the “EM(nm)” value came out at 500 nm and the “EX(nm)” value was found to be 390 nm.
`Cc1cccc(/C=C/c2ccc(-c3ccccc3)cc2)[n+]1C.[I-]` [Compound L17]: in data set [2], the “EM(nm)” value stood at 500 nm and the “EX(nm)” value is 420 nm.
`Cc1cccc(/C=C/c2c[nH]c3ccccc23)[n+]1C.[I-]` [Compound L24]: in data set [2], the “EM(nm)” value was 500 nm and the “EX(nm)” value is reported as 430 nm.
With `Cc1cccc(C=Cc2ccc(N(C)C)c3ccccc23)[n+]1C.[I-]` [Compound L27], in data set [2], the “EM(nm)” value is reported as 620 nm and the “EX(nm)” value turned out to be 430 nm.
In the case of `Cc1cccc(C=C/C=C/c2ccc(N(C)C)cc2)[n+]1C.[I-]` [Compound L37], in data set [2], the “EM(nm)” value stood at 680 nm and the “EX(nm)” value came to 480 nm.
In the same order, the values of `COc1cc(OC)c(OC)cc1C=Cc1cccc(C)[n+]1C.[I-]` [Compound L38] are 570 nm and 420 nm.
`Cc1cccc(C=Cc2ccc3c(c2)OCO3)[n+]1C.[I-]` [Compound L39]: in data set [2], the “EM(nm)” value stood at 510 nm and the “EX(nm)” value came out at 390 nm.
Take `Cc1cccc(/C=C/c2ccccn2)[n+]1C.[I-]` [Compound L40]: in data set [2], the “EM(nm)” value came out at 620 nm and the “EX(nm)” value is given as 380 nm.
